Assays:
[1] = tested on: spermidine/spermine N^1 -acetyltransferase (SSAT); experiment: SSAT induction in host tissue of treated mice; type: in vivo, mouse; conditions: spleen (PANUT-3 mice), 80 mg/kg
[2] = tested on: human melanoma xenografts; experiment: antitumor response, human melanoma xenografts, dose comparison and general; type: in vivo; conditions: MALME-3, SH-1, PANUT-3, LOX
Experimental: The in-vivo antitumor activities of BESPM, BEHSPM, and BENSPM, were compared against various human xenografts in nude athymic mice. Cultured human tumor cells were first passaged several times in female HSD nude athymic mice. Fragments of resultant tumor were implanted into mice via subcutaneous trocar implantation. Mice of different treatment groups were treated with one or more of the three bis-ethyl spermine analogs BESPM, BEHSPM, and BENSPM. Anti-proliferative activity was monitored by antitumor responses including tumor growth suppression, tumor regression, or repression of regrowth.
For example, human melanoma cell lines including MALME-3, SH-1, PANUT-3 and LOX were evaluated for the level of SSAT induction and potency of antitumor response following BENSPM treatment (80 mg/kg 3×/day×6 days) using the methodology previously described in this embodiment. […] The baseline of SSAT activity in the control mice (2 examined of 7 mice) ranged from 50 to 90 pmol/min/mg. […] Note that following BENSPM treatment (as discussed above in the context of Tables 4 and 5), suppression of tumor growth of PANUT-3, unlike suppression of MALME-3 growth, lasted for only about 12 days. Further, the levels of SSAT in PANUT-3 at two weeks post-treatment, approached the levels in the control and correlated with the loss of antitumor activity.

Q: For CCNCCCNCCCNCCCNCC [BENSPM, N^1,N^11 -bis(ethyl)norspermine], which SSAT activity ([1]; 2 wks post-treatment) is on record?
A: 48/40

Q: And the SSAT activity ([1]; 16 hrs post-treatment)?
A: 163/322

Q: What about the “antitumor response at 40 mg/kg versus 80 mg/kg” value [2] of the same compound?
A: very similar to the response at 80 mg/kg

— patent US5498522A, “Methods for the use of spermidine/spermine N^1 -acetyltransferase as a prognostic indicator and/or a tumor response marker” (priority 1993, dated 1996)
